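Method: 48-hour compound exposure of cells in 96-well plates, five concentrations, linear interpolation of endpoints. GI50 = concentration required for 50% inhibition of growth.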 Calls of active or inactive are those of the source. Cut-off read from the data, not from the text of the source: active = GI50 up to about 1.1 µM and inactive = higher.
Key:
Assay in all cases: DTP human tumour cell line panel, 48 h
786-0 = tested on: 786-0
A498 = tested on: A498
A549 = tested on: A549
ACHN = tested on: ACHN
BT-549 = tested on: BT-549
CAKI-1 = tested on: CAKI-1
CCRF-CEM = tested on: CCRF-CEM
COLO 205 = tested on: COLO 205
DU-145 = tested on: DU-145
EKVX = tested on: EKVX
HCC 2998 = tested on: HCC 2998
HCT-116 = tested on: HCT-116
HCT-15 = tested on: HCT-15
HL-60 = tested on: HL-60
HOP-62 = tested on: HOP-62
HOP-92 = tested on: HOP-92
HT-29 = tested on: HT-29
IGROV-1 = tested on: IGROV-1
K562 = tested on: K562
KM12 = tested on: KM12
LOX IMVI = tested on: LOX IMVI
M14 = tested on: M14
MCF7 = tested on: MCF7
MDA-MB-231 = tested on: MDA-MB-231
MDA-MB-435 = tested on: MDA-MB-435
MDA-N = tested on: MDA-N
MOLT-4 = tested on: MOLT-4
Malme-3M = tested on: Malme-3M
NCI-H226 = tested on: NCI-H226
NCI-H23 = tested on: NCI-H23
NCI-H460 = tested on: NCI-H460
NCI-H522 = tested on: NCI-H522
NCI/ADR-RES = tested on: NCI/ADR-RES
OVCAR-3 = tested on: OVCAR-3
OVCAR-4 = tested on: OVCAR-4
OVCAR-5 = tested on: OVCAR-5
OVCAR-8 = tested on: OVCAR-8
PC-3 = tested on: PC-3
RPMI-8226 = tested on: RPMI-8226
RXF 393 = tested on: RXF 393
SF-268 = tested on: SF-268
SF-295 = tested on: SF-295
SF-539 = tested on: SF-539
SK-MEL-28 = tested on: SK-MEL-28
SK-MEL-2 = tested on: SK-MEL-2
SK-MEL-5 = tested on: SK-MEL-5
SK-OV-3 = tested on: SK-OV-3
SN12C = tested on: SN12C
SNB-19 = tested on: SNB-19
SNB-75 = tested on: SNB-75
SR = tested on: SR
SW-620 = tested on: SW-620
T47D = tested on: T47D
TK-10 = tested on: TK-10
U-251 = tested on: U-251
UACC-257 = tested on: UACC-257
UACC-62 = tested on: UACC-62
UO-31 = tested on: UO-31

SMILES: CCCC(=O)Oc1c2ccsc2c(OC(=O)CCC)c2ccsc12
- GI50 (786-0): 4550 nM (inactive)
- GI50 (A498): 4600 nM (inactive)
- GI50 (A549): 3940 nM (inactive)
- GI50 (ACHN): 2230 nM (inactive)
- GI50 (BT-549): 1350 nM (inactive)
- GI50 (CAKI-1): 5550 nM (inactive)
- GI50 (CCRF-CEM): 1540 nM (inactive)
- GI50 (COLO 205): 10900 nM (inactive)
- GI50 (DU-145): 857 nM (active)
- GI50 (EKVX): 2270 nM (inactive)
- GI50 (HCC 2998): 4140 nM (inactive)
- GI50 (HCT-116): 1350 nM (inactive)
- GI50 (HCT-15): 1210 nM
- GI50 (HL-60): 1080 nM (active)
- GI50 (HOP-62): 536 nM (active)
- GI50 (HOP-92): 1100 nM (active)
- GI50 (HT-29): 5350 nM (inactive)
- GI50 (IGROV-1): 4180 nM (inactive)
- GI50 (K562): 1240 nM (inactive)
- GI50 (KM12): 7640 nM (inactive)
- GI50 (LOX IMVI): 594 nM (active)
- GI50 (M14): 1570 nM (inactive)
- GI50 (MCF7): 2230 nM (inactive)
- GI50 (MDA-MB-231): 1490 nM (inactive)
- GI50 (MDA-MB-435): 305 nM (active)
- GI50 (MDA-N): 371 nM (active)
- GI50 (MOLT-4): 1960 nM (inactive)
- GI50 (Malme-3M): 359 nM (active)
- GI50 (NCI-H226): 4000 nM (inactive)
- GI50 (NCI-H23): 740 nM (active)
- GI50 (NCI-H460): 1050 nM (active)
- GI50 (NCI-H522): 2260 nM (inactive)
- GI50 (NCI/ADR-RES): 1040 nM (active)
- GI50 (OVCAR-3): 1070 nM (active)
- GI50 (OVCAR-4): 2940 nM (inactive)
- GI50 (OVCAR-5): 2760 nM (inactive)
- GI50 (OVCAR-8): 407 nM (active)
- GI50 (PC-3): 836 nM (active)
- GI50 (RPMI-8226): 1410 nM (inactive)
- GI50 (RXF 393): 3050 nM (inactive)
- GI50 (SF-268): 3130 nM (inactive)
- GI50 (SF-295): 457 nM (active)
- GI50 (SF-539): 982 nM (active)
- GI50 (SK-MEL-28): 951 nM (active)
- GI50 (SK-MEL-2): 1090 nM (active)
- GI50 (SK-MEL-5): 804 nM (active)
- GI50 (SK-OV-3): 750 nM (active)
- GI50 (SN12C): 1110 nM (active)
- GI50 (SNB-19): 2600 nM (inactive)
- GI50 (SNB-75): 1830 nM (inactive)
- GI50 (SR): 444 nM (active)
- GI50 (SW-620): 1630 nM (inactive)
- GI50 (T47D): 6370 nM (inactive)
- GI50 (TK-10): 4480 nM (inactive)
- GI50 (U-251): 1360 nM (inactive)
- GI50 (UACC-257): 920 nM (active)
- GI50 (UACC-62): 1140 nM (inactive)
- GI50 (UO-31): 2530 nM (inactive)

— ChEMBL document CHEMBL1201862, “PubChem BioAssay data set” (2004)
